The values below come from patent publication US20240381872A1, “SUBSTITUTED 2,3-DIHYDRO[1,3]THIAZOLO[4,5-B]PYRIDINES, SALTS THEREOF AND THEIR USE AS HERBICIDALLY ACTIVE SUBSTANCES” (BAYER AKTIENGESELLSCHAFT, priority 2021, published 2024).

Holding throughout (format): in vivo
Data set [1] has as its system Matricaria inodora (MATIN). In words: Herbicidal post-emergence action, section B (Table B6). To be noted: visual rating about 3 weeks after treatment vs untreated controls; for post-emergence activity against MATIN in %: application rate 1280 g/ha. Here is the method: (§1) Seeds of mono- and dicotyledonous weed plants were placed in plastic pots in sandy loam soil (doubly sown with in each case one species of mono- or dicotyledonous weed plants per pot), covered with soil and cultivated in a greenhouse under controlled growth conditions. 2 to 3 weeks after sowing, the test plants were treated at the one-leaf stage. The compounds of the invention, formulated in the form of wettable powders (WP) or as emulsion concentrates (EC), were applied onto the green parts of the plants as aqueous suspension or emulsion with addition of 0.5% additive at a water application rate of 600 liters per hectare (converted). After the test plants had been kept in the greenhouse under optimum growth conditions for about 3 weeks, the activity of the preparations was rated visually in comparison to untreated controls. For example, 100% activity=the plants have died, 0% activity=like control plants.

The subject of data set [2] is Kochia scoparia (KCHSC). In words: Herbicidal post-emergence action, section E (Table E11). Conditions: visual assessment ca. 3 weeks after spraying; for pest or weed control at 80 g/ha: Bassia scoparia, 504 h, read-out: post-emergence activity against KCHSC in %. An excerpt: (§2) Seeds of mono- and dicotyledonous weed plants and crop plants were sown, in plastic or organic planting pots, in sandy loam, covered with soil and grown in a greenhouse under controlled growth conditions. 2 to 3 weeks after sowing, the test plants were sprayed in the single-leaf stage. The compounds according to the invention, formulated in form of wettable powders (WP) or as emulsifiable concentrates (EC), were sprayed onto the green plant parts as aqueous suspension or emulsion, with the addition of 0.5% of an additive, at an application rate of 600 l of water/ha (converted). The test plants were placed in the greenhouse for ca. 3 weeks under optimum growth conditions, and then the effect of the preparations was assessed visually in comparison with untreated controls (herbicidal effect in percent (%): 100% effect=plants have died off, 0% effect=as control plants).

The subject of data set [3] is Kochia scoparia (KCHSC). In words: Herbicidal pre-emergence action, section C (Table C13). To be noted: application rate 320 g/ha, visual grading after ca. 3 weeks; for pest or weed control at 320 g/ha: Bassia scoparia, pre-emergence, 504 h, read-out: pre-emergence activity against KCHSC in %. An excerpt:
(§3) Seeds of mono- and dicotyledonous weed plants and crop plants were sown, in plastic or organic planting pots, in sandy loam and covered with soil. The compounds according to the invention, formulated in the form of wettable powders (WP) or as emulsifiable concentrates (EC), were applied to the surface of the covering soil as aqueous suspension or emulsion, with the addition of 0.5% of an additive, at an application rate of 600 l of water/ha (converted). Following treatment, the pots were placed in a greenhouse and kept under optimum growth conditions for the test plants. The visual grading of the damage to the test plants was carried out after ca. 3 weeks in comparison to untreated controls (herbicidal effect in percent (%): 100% effect=plants have died off, 0% effect=as control plants).

Data set [4] concerns Setaria viridis (SETVI). The data set can be described thus: Herbicidal post-emergence action, section E (Table E8). To be noted: application rate 320 g/ha, visual assessment ca. 3 weeks after spraying; for pest or weed control at 320 g/ha: Setaria viridis, 504 h, read-out: post-emergence activity against SETVI in %.
From the text: as §2

The subject of data set [5] is Kochia scoparia (KCHSC). The data set can be described thus: Herbicidal post-emergence action, section B (Table B4). To be noted: visual rating about 3 weeks after treatment vs untreated controls; for pest or weed control at 320 g/ha / pest or weed control at 1280 g/ha: Bassia scoparia, post-emergence, 504 h, read-out: post-emergence activity against KCHSC in %. A digest of the protocol:
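Percent effect, judged by eye against untreated controls (0% = like control, 100% = plants dead), was recorded about 3 weeks after a foliar spray. The spray, at 600 liters per hectare with 0.5% additive, was applied to one-leaf-stage plants grown in sandy loam.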

The subject of data set [6] is Alopecurus myosuroides (ALOMY). In words: Herbicidal post-emergence action, section B (Table B2). To be noted: rated visually about 3 weeks after treatment vs untreated controls, 100% = plants have died, 0% = like control plants; for pest or weed control at 1280 g/ha: Alopecurus myosuroides, post-emergence, 504 h, read-out: post-emergence activity against ALOMY. Here is the method: as §1

Data set [7] relates to Brassica napus (BRSNW). In words: Pre-emergence effects on crop plants, section D (Table D5). To be noted: application rate 80 g/ha; visual grading after ca. 3 weeks. An excerpt:
(§4) Seeds of mono- and dicotyledonous weed plants and crop plants were sown, in plastic or organic planting pots, in sandy loam and covered with soil. The compounds according to the invention, formulated in the form of wettable powders (WP) or as emulsifiable concentrates (EC), were applied to the surface of the covering soil as aqueous suspension or emulsion, with the addition of 0.5% of an additive, at an application rate of 600 l of water/ha (converted).
(§5) Following treatment, the pots were placed in a greenhouse and kept under optimum growth conditions for the test plants. The visual grading of the damage to the test plants was carried out after ca. 3 weeks in comparison to untreated controls (herbicidal effect in percent (%): 100% effect=plants have died off, 0% effect=as control plants).
(§6) Tables D1 to D5 below show the effects of various compounds of the general formula (I) according to Table 1 on various crop plants and an application rate corresponding to 320 g/ha or below obtained by the experimental procedure mentioned above in Biological Examples, Section C.

The test system of data set [8] is Oryza sativa (ORYZA). The data set can be described thus: Pre-emergence effects on crop plants, section D (Table D3). Conditions: application rate 320 g/ha; visual grading after ca. 3 weeks.
From the text: as §4, §5, §6

Data set [9] deals with Brassica napus (BRSNW). In words: Post-emergence effects on crop plants, section F (Table F5). Conditions: for post-emergence activity against BRSNW in %: crop plant damage.
From the text: as §2, with “plants). Tables F1 to F4 below show the effects of selected compounds of the general formula (I) according to Table 1 on various crop plants and an application rate corresponding to 320 g/ha or below obtained by the experimental procedure mentioned above.” for “plants).”

Data set [10] relates to Viola tricolor (VIOTR). The data set can be described thus: Herbicidal pre-emergence action, section C (Table C9). To be noted: visual grading after ca. 3 weeks.
From the text: as §3

[11] abbreviates: Brassica napus, 504 h, application rate 80 g/ha, read-out: post-emergence activity against BRSNW in %.

With `CCOCCS(=O)(=O)N1C[S+]([O-])c2cc(C)c(-c3ccccc3F)nc21` (stereo not shown) [Example I-127], the pest or weed control at 320 g/ha worked out at 90% in data set [1] (Tripleurospermum inodorum, post-emergence, 504 h, application rate 320 g/ha, read-out: post-emergence activity against MATIN in %); 90% in data set [3]; 80% in [4]; 90% in data set [5] (application rate 320 g/ha). For the same compound, in [2] (application rate 80 g/ha), the pest or weed control at 80 g/ha amounted to 90%.
On to `COC(=O)CCC(=O)N1CSc2cc(Cl)c(-c3ccccc3F)nc21` [Example I-003], for which the “post-emergence activity against ALOMY” value in [6] (application rate 320 g/ha) was 100%. Besides, in [7], the “pre-emergence activity against BRSNW in % (crop plant damage)” value amounted to 20%. In addition, in data set [4], the “post-emergence activity against SETVI in %” value is on record as 80%. Further, in data set [5] (application rate 320 g/ha), the “post-emergence activity against KCHSC in %” value is reported as 90%.
As for `COCC1(C(=O)N2CSc3cc(C)c(-c4ccccc4F)nc32)CC(Cl)=NO1` (stereo not shown) [Example I-128], the “post-emergence activity against MATIN in %” value in [1] is 90%. In addition, the “post-emergence activity against KCHSC in %” value in [2] (application rate 80 g/ha) and in data set [5] (application rate 320 g/ha) was 90% throughout. The “pre-emergence activity against KCHSC in %” value in data set [3] was determined as 90%. Further, in data set [4], the “post-emergence activity against SETVI in %” value was determined as 80%.
On to `Cc1cc2c(nc1-c1ccccc1Cl)NCS2` [Example I-049, 5-(2-chlorophenyl)-6-methyl-2,3-dihydro[1,3]thiazolo[4,5-b]pyridine], for which the pest or weed control at 320 g/ha in data set [4] was determined as 80%.
`Cc1cc2c(nc1-c1cccc(F)c1F)NCS2` [Example I-029, 5-(2,3-difluorophenyl)-6-methyl-2,3-dihydro[1,3]thiazolo[4,5-b]pyridine]: the pest or weed control at 1280 g/ha in data set [6] (application rate 1280 g/ha) turned out to be 90%. In [5] (application rate 320 g/ha), the pest or weed control at 320 g/ha worked out at 90%.
As for `CC(=O)N1CSc2cc(Br)c(-c3ccccc3Cl)nc21` [Example I-055, 1-[6-bromo-5-(2-chlorophenyl)[1,3]thiazolo[4,5-b]pyridin-3(2H)-yl]ethanone], in data set [8], the “pre-emergence activity against ORYZA in % (crop plant damage)” value worked out at 20%. For the same compound, the “pre-emergence activity against BRSNW in % (crop plant damage)” value in data set [7] was found to be 20%. In addition, the pest or weed control at 1280 g/ha in data set [5] (application rate 1280 g/ha) turned out to be 90%. For the same compound, in [9] (setting [11]), the crop plant damage (phytotoxicity) in % at 80 g/ha stood at 10%.
On to `BN1CSc2cc(Br)c(-c3ccccc3C)nc21` [Example I-011], for which the “post-emergence activity against KCHSC in %” value in data set [5] (application rate 1280 g/ha) was 90%.
As for `CCS(=O)(=O)N1C[S+]([O-])c2cc(C)c(-c3ccccc3C)nc21` (stereo not shown) [Example I-074], the pest or weed control at 320 g/ha was 90% in [10] (Viola tricolor, pre-emergence, 504 h, application rate 320 g/ha, read-out: pre-emergence activity against VIOTR in %) and 90% in [5] (application rate 320 g/ha).
For `COC(=O)CCC(=O)N1CSc2cc(C)c(-c3ccccc3F)nc21` [Example I-010], the “post-emergence activity against MATIN in %” value in data set [1] worked out at 90%. The “post-emergence activity against KCHSC in %” value in data set [5] (application rate 320 g/ha) is 90%.
As to `CCc1ccccc1-c1nc2c(cc1C)[S+]([O-])CN2` (stereo not shown) [Example I-047], the pest or weed control at 80 g/ha in data set [10] (Viola tricolor, pre-emergence, 504 h, application rate 80 g/ha, read-out: pre-emergence activity against VIOTR in %) worked out at 90%. The pest or weed control at 320 g/ha in data set [5] (application rate 320 g/ha) came to 90%. Moreover, the crop plant damage (phytotoxicity) in % at 320 g/ha in data set [9] (Brassica napus, 504 h, application rate 320 g/ha, read-out: post-emergence activity against BRSNW in %) stood at 20%.
In the case of `Clc1ccccc1-c1nc2c(cc1Br)SCN2` [Example I-041, 6-bromo-5-(2-chlorophenyl)-2,3-dihydro[1,3]thiazolo[4,5-b]pyridine], in data set [8], the “pre-emergence activity against ORYZA in % (crop plant damage)” value is 20%. Further, in [6] (application rate 1280 g/ha), the pest or weed control at 1280 g/ha was found to be 90%. Moreover, the pest or weed control at 320 g/ha in data set [5] (application rate 320 g/ha) was found to be 90%.
Turning to `Cc1cc2c(nc1-c1ccccc1)N(C(=O)C1(C)CC(Cl)=NO1)CS2` (stereo not shown) [Example I-088], the “post-emergence activity against MATIN in %” value in data set [1] was found to be 90%. The “pre-emergence activity against VIOTR in %” value in data set [10] (application rate 320 g/ha) is on record as 90%. Moreover, the results for the “post-emergence activity against KCHSC in %” value in data set [2] (application rate 320 g/ha) and in [5] (application rate 320 g/ha) were 80% and 90%, respectively. Moreover, the “pre-emergence activity against KCHSC in %” value in [3] was 90%. The “post-emergence activity against BRSNW in %” value in data set [9] (application rate 80 g/ha) stood at 0%.
For the compound `CC1(C(=O)N2CSc3cc(Br)c(-c4ccccc4)nc32)CC(Cl)=NO1` (stereo not shown) [Example I-139], the “post-emergence activity against KCHSC in %” value in data set [2] (application rate 320 g/ha) and in data set [5] (application rate 1280 g/ha) was 90% in each case. Further, the “pre-emergence activity against KCHSC in %” value in [3] was found to be 90%.
Regarding `Cc1ccccc1-c1nc2c(cc1C)SCN2C(=O)C1(C)CC(Cl)=NO1` (stereo not shown) [Example I-137], the “post-emergence activity against MATIN in %” value in data set [1] came to 90%. In addition, the “post-emergence activity against KCHSC in %” value in data set [2] (application rate 80 g/ha) and in data set [5] (application rate 320 g/ha) was 90% in each case. In [3], the “pre-emergence activity against KCHSC in %” value was 100%.
For `Cc1cc2c(nc1-c1cccc(C)c1F)NCS2` [Example I-113], the “post-emergence activity against MATIN in %” value in data set [1] amounted to 90%. Besides, the “post-emergence activity against ALOMY” value in data set [6] (application rate 1280 g/ha) came out at 90%. Further, the “pre-emergence activity against KCHSC in %” value in data set [3] came to 80%. Moreover, the “post-emergence activity against KCHSC in %” value in data set [5] (application rate 320 g/ha) came to 90%. The “post-emergence activity against BRSNW in %” value in [9] (application rate 320 g/ha) was found to be 20%.
Regarding `CC1(C(=O)N2CSc3cc(Br)c(-c4ccccc4Cl)nc32)CC(Cl)=NO1` (stereo not shown) [Example I-141, [6-bromo-5-(2-chlorophenyl)[1,3]thiazolo[4,5-b]pyridin-3(2H)-yl](3-chloro-5-methyl-4,5-dihydro-1,2-oxazol-5-yl)methanone], in [2] (application rate 80 g/ha), the pest or weed control at 80 g/ha was 80%. The “pre-emergence activity against BRSNW in % (crop plant damage)” value in data set [7] is recorded as 20%. Moreover, the pest or weed control at 320 g/ha in data set [3] worked out at 90%. Moreover, the pest or weed control at 1280 g/ha in data set [5] (application rate 1280 g/ha) was determined as 90%. The crop plant damage (phytotoxicity) in % at 80 g/ha in data set [9] (setting [11]) worked out at 20%.
